Our source for the target mRNA inhibition values is the OligoGym collection.

Where “and” joins values, the source holds several entries; their conditions need not be identical. Equal entries are not always repeated. After the bases stand the sugars from the 5' end (letter, count) and the backbone: PS all phosphorothioate, else s phosphorothioate and o phosphodiester by linkage. Methylation of C is not given here. e = 2'-O-(2-methoxyethyl) (MOE); k = constrained ethyl (cEt); d = 2'-deoxy (DNA)

The data set deals with IRF4. As to conditions: ASO.

Consider “CTTGATAAAGGCTGAA (sugars kkkddddddddkekek, PS)”, for which the target mRNA inhibition (MM.1R, 1 µM) turned out to be 12%.
Turning to GGCTGAAACGGTCAGC (sugars k3 d10 k3, PS), for the setting “MM.1R, 1 µM”, the target mRNA inhibition was -27%.
On to CTTATAGCACTCTCCT (sugars k3 d10 k3, PS), for which the target mRNA inhibition (SK-MEL-28, 4 µM) came to 33%.
The same measure, in the same setting: next, TGTGAACATCTCAGAT (sugars k3 d10 k3, PS): 12%.
As for “CAGTGATGTCAGGTTT (sugars k3 d9 k3 e1, PS)”, the target mRNA inhibition (MM.1R, 1 µM) is 49%.
On to TCCTTAATTATGCAGA (sugars k3 d10 k3, PS), for which the target mRNA inhibition (SK-MEL-28, 4 µM) was 44%.
For the sequence TCAGCTCCACTGTTAA (sugars k3 d10 k3, PS), the target mRNA inhibition (SK-MEL-28, 4 µM) was determined as 73%.
Turning to CGCACGGACGAACGCG (sugars k3 d10 k3, PS), the target mRNA inhibition (MM.1R, 1 µM) was -17%.
GAGCTGTGATGAGCTT (sugars k3 d10 k3, PS): the target mRNA inhibition (SK-MEL-28, 4 µM) was 10%.
Turning to “ACCTCAGTTTGTGAAG (sugars kkkddddddddkekek, PS)”, for the setting “MM.1R, 1 µM”, the target mRNA inhibition is -3%.
Regarding GTCCTGCTTGCCCGCG (sugars k4 d8 k4, PS), where the note is “SK-MEL-28, 4 µM”, the target mRNA inhibition was found to be 14%.
Take “GTTGGCTGGTCTTTGT (sugars kkddddddddddkeke, PS)”: the target mRNA inhibition (MM.1R, 1 µM) stood at 25%.
With CATCGAACTCCTGAGT (sugars k3 d10 k3, PS), the target mRNA inhibition (SK-MEL-28, 4 µM) stood at 31%.
Still for that read-out and setting: next, CCTCAAAGCTGTGAAA (sugars k3 d10 k3, PS): 20%; AGCACATGTCAACAGT (sugars k3 d10 k3, PS): 31%.
As to ACTACCTGCAGCCAAG (sugars k3 d10 k3, PS), the target mRNA inhibition (MM.1R, 1 µM) is 4%.
With GGGCACCCCGCCCCGA (sugars k3 d10 k3, PS), the target mRNA inhibition (SK-MEL-28, 4 µM) was found to be 1%.
Take ATGGAACCCCAAAATC (sugars k3 d10 k3, PS): the target mRNA inhibition (SK-MEL-28, 4 µM) came out at 24%.
The same measure, in the same setting: for AGAAAGAGCTGGTAGG (sugars k3 d10 k3, PS) the value was 36%.
For the sequence “AGTGATGTCAGGTTTT (sugars kkdddddddddekeke, PS)”, the target mRNA inhibition (MM.1R, 1 µM) is 33%.
CCTGTCACCTGGCAAC (sugars k4 d8 k4, PS): the target mRNA inhibition (SK-MEL-28, 4 µM) is 37%.
Turning to GGCACAGCCGTCCGCC (sugars k3 d10 k3, PS), the target mRNA inhibition (SK-MEL-28, 4 µM) stood at 11%.
In the case of AATGAACGGAAGTTTA (sugars k3 d10 k3, PS), the target mRNA inhibition (SK-MEL-28, 4 µM) was determined as 33%.
Turning to TTCCAGTGGTGGGTCC (sugars k3 d10 k3, PS), the target mRNA inhibition (SK-MEL-28, 4 µM) is 29%.
Same read-out and setting: next, CCCTTCCCCGCGACTC (sugars k3 d10 k3, PS): 19%.
For “GGGATTATATACTGGT (sugars kkddddddddddkeke, PS)”, the target mRNA inhibition (MM.1R, 1 µM) came out at 46%.
As for AATCAGATGATGTCTA (sugars k4 d8 k4, PS), where the note is “SK-MEL-28, 4 µM”, the target mRNA inhibition is -13%.
With GTGTGGCTGATCCGGG (sugars k3 d10 k3, PS), the target mRNA inhibition (SK-MEL-28, 4 µM) is 27%.
Consider “ACGGAAGTTTACACTG (sugars kkkddddddddkekek, PS)”, for which, for the setting “MM.1R, 1 µM”, the target mRNA inhibition was found to be 14%.
With “ACTGCTTGAGGTTTTC (sugars kkkdddddddddkeke, PS)”, for the setting “MM.1R, 1 µM”, the target mRNA inhibition stood at 38%.
For the sequence CTGTAGGATTTTACAT (sugars k3 d10 k3, PS), the target mRNA inhibition (SK-MEL-28, 4 µM) came to 24%.
As for GAACCTGCTGGGCTGG (sugars k4 d8 k4, PS), the target mRNA inhibition (SK-MEL-28, 4 µM) was 13%.
Consider TCAACCAGTTCCTCAA (sugars k3 d10 k3, PS), for which, under “MM.1R, 1 µM”, the target mRNA inhibition was -23%.
As for ATAATTGGCACGAGGA (sugars k3 d10 k3, PS), the target mRNA inhibition (SK-MEL-28, 4 µM) came out at 67%.
Regarding TCCCATCGAATCTGCC (sugars k3 d10 k3, PS), the target mRNA inhibition (MM.1R, 1 µM) is -5%.
The same measure, in the same setting: next, “GTGTGCTTGCCAAGCC (sugars kkdddddddddkdkdk, PS)”: 59%.
The same measure, in the same setting: for GTGCTCTTACAGCCTC (sugars k3 d10 k3, PS) the value was -15%.
For the sequence CTCTTACTCCGCTGAG (sugars k3 d10 k3, PS), the target mRNA inhibition (SK-MEL-28, 4 µM) is -5%.
For the sequence “GTGATGTCAGGTTTTC (sugars k2 d9 e3 k2, PS)”, the target mRNA inhibition (MM.1R, 1 µM) is 38%.
Regarding ACTCAATGTGCACCTT (sugars k3 d10 k3, PS), the target mRNA inhibition (SK-MEL-28, 4 µM) was determined as 29%.
The same measure, in the same setting: next, CTACCTCAGTTTGTGA (sugars k3 d10 k3, PS): 41%; ACTGGCATTGAGACGG (sugars k3 d10 k3, PS): 72% and 79%.
Take “ACGGAAGTTTACACTG (sugars k2 d9 e3 k2, PS)”: the target mRNA inhibition (MM.1R, 1 µM) worked out at 15%.
As for “TGTGATAGCTGAGCTG (sugars kkdddddddddkekek, PS)”, the target mRNA inhibition (MM.1R, 1 µM) amounted to 17%.
As to AGCAAAGAGGGTCACA (sugars k3 d10 k3, PS), the target mRNA inhibition (SK-MEL-28, 4 µM) stood at 68%.
On to CCCACATAACTCAGGC (sugars k3 d10 k3, PS), for which the target mRNA inhibition (MM.1R, 1 µM) is -16%.
In the case of GGCAAGTTCTGCTGTC (sugars k3 d10 k3, PS), the target mRNA inhibition (SK-MEL-28, 4 µM) is 58%.
For the sequence TGGCTAGCAGAGGTTC (sugars k3 d10 k3, PS), the target mRNA inhibition (SK-MEL-28, 0.185 µM) was determined as 1%; the target mRNA inhibition (SK-MEL-28, 4 µM) was determined as 56%; the target mRNA inhibition (SK-MEL-28, 5 µM) was found to be 62%; the target mRNA inhibition (SK-MEL-28, 15 µM) was found to be 85%.
For the sequence TTAAGAGGCGACTGCT (sugars k3 d10 k3, PS), for the setting “SK-MEL-28, 4 µM”, the target mRNA inhibition was found to be 12%.
In the case of GCTGATGGAGAAACGA (sugars k3 d10 k3, PS), the target mRNA inhibition (SK-MEL-28, 4 µM) came to 7%.
For GAGTTACCGCATTGCT (sugars k3 d10 k3, PS), the target mRNA inhibition (MM.1R, 0.0625 µM) is -9%; the target mRNA inhibition (MM.1R, 0.25 µM) is 16%; the target mRNA inhibition (MM.1R, 1 µM) was 47% and 52%; the target mRNA inhibition (MM.1R, 4 µM) stood at 81%.
For the sequence CGGAGCTTCCCGTTGC (sugars k3 d10 k3, PS), the target mRNA inhibition (SK-MEL-28, 4 µM) amounted to 35%.
Turning to TGAGATAGGAAGCACT (sugars k3 d10 k3, PS), for the setting “SK-MEL-28, 4 µM”, the target mRNA inhibition worked out at 38%.
“AGTGTCTAAAGTCCCA (sugars k2 d9 e3 k2, PS)”: the target mRNA inhibition (MM.1R, 1 µM) was 26% and 12%.
Turning to “TTTATGTTAGCCAATT (sugars kdddddddddkekeke, PS)”, the target mRNA inhibition (MM.1R, 1 µM) was 5% and 14%.
TGTTACCGATGCTTCA (sugars k3 d10 k3, PS): the target mRNA inhibition (SK-MEL-28, 4 µM) was 49%.
Take AGCCACTGGCGGAGCT (sugars k3 d10 k3, PS): the target mRNA inhibition (SK-MEL-28, 4 µM) was 38%.
“GTTGTAAATGAGTCGG (sugars kkdddddddddekeke, PS)”: where the note is “MM.1R, 1 µM”, the target mRNA inhibition stood at 48%.
For CCTCAGGGAATCCCTT (sugars k3 d10 k3, PS), the target mRNA inhibition (SK-MEL-28, 4 µM) came to 30%.
On to CTGTAACTGACTAACA (sugars k3 d10 k3, PS), for which, under “SK-MEL-28, 4 µM”, the target mRNA inhibition worked out at 23%.
In the case of “AGCTTGATAAAGGCTG (sugars kddddddddddkekek, PS)”, the target mRNA inhibition (MM.1R, 1 µM) stood at 1%.
For AGCCGCCACATCAGCA (sugars k3 d10 k3, PS), the target mRNA inhibition (SK-MEL-28, 4 µM) came to 21%.
For “ACTGCTTGAGGTTTTC (sugars kdddddddddkekeke, PS)”, the target mRNA inhibition (MM.1R, 1 µM) is 21%.
Consider AAGCAAGAGCTTACTG (sugars k3 d10 k3, PS), for which the target mRNA inhibition (SK-MEL-28, 4 µM) was 14%.
With “CAGTTGTAAATGAGTC (sugars e1 k2 d9 k2 e2, PS)”, the target mRNA inhibition runs as follows: (MM.1R, 0.074 µM) 12%; (MM.1R, 0.222 µM) 34%; (MM.1R, 0.666 µM) 51%; (MM.1R, 1 µM) 55%; (MM.1R, 2 µM) 70%.
With ACGAAACACAGTCTGC (sugars k3 d10 k3, PS), the target mRNA inhibition (SK-MEL-28, 4 µM) was 52%.
As to GAAATACGACAACTTT (sugars k3 d10 k3, PS), the target mRNA inhibition (SK-MEL-28, 4 µM) was 22%.
The same measure, in the same setting: next, TACATTGAGGCATACA (sugars k3 d10 k3, PS): 41%.
GTATTACTCTTAGGCA (sugars k3 d10 k3, PS): the target mRNA inhibition reads like this: (MM.1R, 0.0625 µM) 13%; (MM.1R, 0.074 µM) 15%; (MM.1R, 0.222 µM) 7%; (MM.1R, 0.25 µM) 24%; (MM.1R, 0.666 µM) 21%; (MM.1R, 1 µM) 41%. The target mRNA inhibition runs as follows: (MM.1R, 2 µM) 51%; (MM.1R, 4 µM) 69%; (SK-MEL-28, 4 µM) 64%.
As for ACAGTGATCATCAATG (sugars k3 d10 k3, PS), the target mRNA inhibition (SK-MEL-28, 4 µM) was 56%.
On the same count and under the same terms, for GGCACAAGCATAAAAG (sugars k3 d10 k3, PS) the value was 1%.
For ATTTTTTGGTTAGTCC (sugars k3 d10 k3, PS), the target mRNA inhibition (SK-MEL-28, 4 µM) is 53%.
For the sequence ACACACCACTATTCGA (sugars k3 d10 k3, PS), for the setting “SK-MEL-28, 4 µM”, the target mRNA inhibition was 35%.
Take “CCTCAGTTTGTGAAGC (sugars kdddddddddkekeke, PS)”: for the setting “MM.1R, 1 µM”, the target mRNA inhibition is 11%.
With TTAGACATTACTAGAT (sugars k3 d10 k3, PS), the target mRNA inhibition (SK-MEL-28, 4 µM) amounted to 45%.
Regarding GAATGGCGGATAGATC (sugars k3 d10 k3, PS), under “MM.1R, 1 µM”, the target mRNA inhibition was -3%.
Regarding ACCTTTACTTCATTCC (sugars k3 d10 k3, PS), the target mRNA inhibition (SK-MEL-28, 4 µM) was 64%.
On to CAAGTGTCTAAAGTCC (sugars k3 d10 k3, PS), for which the target mRNA inhibition (MM.1R, 1 µM) was found to be 3%.
In the case of GACGAACGCGCAAAAC (sugars k3 d10 k3, PS), the target mRNA inhibition (MM.1R, 1 µM) was 15%.
Turning to TCACCTGGCAACCTGC (sugars k4 d8 k4, PS), the target mRNA inhibition (SK-MEL-28, 4 µM) is 28%.
On the same count and under the same terms, next, CAGGTAAGGGCCCCGT (sugars k3 d10 k3, PS): 70%; CACTGAGGCCTTAATG (sugars k3 d10 k3, PS): 34%.
“GACACTTTTAGAGAGG (sugars kkkddddddddkekek, PS)”: the target mRNA inhibition (MM.1R, 1 µM) was -8%.
On the same count and under the same terms, next, GAGCCAACTTATAGCA (sugars k3 d10 k3, PS): 11% and 8%.
For the sequence TTGGTTGGCTGGTCTT (sugars k3 d10 k3, PS), the target mRNA inhibition was 40% (MM.1R, 0.0625 µM); 58% (MM.1R, 0.25 µM); 76% and 72% (MM.1R, 1 µM); 89% (MM.1R, 4 µM).
